Tests used:
[1] = ultraviolet absorption and fluorescence emission in chloroform; format: physicochemical; details: 10 μM; for maximum emission wavelength (fluorescence spectrum): excitation wavelength and slit width per dye
Protocol: The ultraviolet absorption and fluorescence emission of the dyes prepared in the examples and comparative examples (at a concentration of 10 μM) in chloroform were tested. The horizontal ordinate is the wavelength, and the vertical ordinate is the absorbance and fluorescence intensity, respectively.
In the ultraviolet-visible absorption spectrum, dye 1a has the maximum absorption at 378 nm; and in the fluorescence spectrum, dye 1a has the highest fluorescence intensity at 452 nm, where the excitation wavelength is 370 nm, and the slit width is 3 nm/1.5 nm. In the ultraviolet-visible absorption spectrum, dye 1b has a maximum absorption wavelength of 382 nm; and in the fluorescence spectrum, dye 1b has a maximum emission wavelength of 485 nm, where the excitation wavelength is 374 nm, and the slit width is 3 nm/1.5 nm. In the ultraviolet-visible absorption spectrum, dye 1c has a maximum absorption wavelength of 385 nm; and in the fluorescence spectrum, dye 1c has a maximum emission wavelength of 454 nm, where the excitation wavelength is 380 nm, and the slit width is 3 nm/1.5 nm. In the ultraviolet-visible absorption spectrum, dye 2a has the maximum absorption at 364 nm; and in the fluorescence spectrum, dye 2a has the highest fluorescence intensity at 480 nm, where the excitation wavelength is 374 nm, and the slit width is 3 nm/1.5 nm. In the ultraviolet-visible absorption spectrum, dye 2b has a maximum absorption wavelength of 360 nm; and in the fluorescence spectrum, dye 2b has a maximum emission wavelength of 458 nm, where the excitation wavelength is 370 nm, and the slit width is 3 nm/1.5 nm. In the ultraviolet-visible absorption spectrum, dye 2c has a maximum absorption wavelength of 356 nm; and in the fluorescence spectrum, dye 2c has a maximum emission wavelength of 441 nm, where the excitation wavelength is 360 nm, and the slit width is 3 nm/3 nm. In the ultraviolet-visible absorption spectrum, dye 3a has the maximum absorption at 548 nm; and in the fluorescence spectrum, dye 3a has the highest fluorescence intensity at 606 nm, where the excitation wavelength is 560 nm, and the slit width is 1.5 nm/1.5 nm. In the ultraviolet-visible absorption spectrum, dye 3b has a maximum absorption wavelength of 549 nm; and in the fluorescence spectrum, dye 3b has a maximum emission wavelength of 608 nm, where the excitation wavelength is 540 nm, and the slit width is 1.5 nm/1.5 nm. In the ultraviolet-visible absorption spectrum, dye 3c has a maximum absorption wavelength of 554 nm; and in the fluorescence spectrum, dye 3c has a maximum emission wavelength of 611 nm, where the excitation wavelength is 540 nm, and the slit width is 1.5 nm/1.5 nm. In the ultraviolet-visible absorption spectrum, dye 3d has a maximum absorption wavelength of 556 nm; and in the fluorescence spectrum, dye 3d has a maximum emission wavelength of 619 nm, where the excitation wavelength is 570 nm, and the slit width is 1.5 nm/1.5 nm. In the ultraviolet-visible absorption spectrum, dye 4 has a maximum absorption wavelength of 501 nm; and in the fluorescence spectrum, dye 4 has a maximum emission wavelength of 515 nm, where the excitation wavelength is 495 nm, and the slit width is 1.5 nm/1.5 nm. The above UV absorption and fluorescence emission test methods are conventional methods.

L929 cells = assay: cell imaging, colocalization with red mitochondrial marker Mito Tracker Red CMXRos; format: cell-based; details: dye 1 μM; for mitochondria labeling ability (blue mitochondrial marker): L929 (normal) and HeLa (cancer) cells, vs Mito Tracker Red CMXRos; for colocalization coefficient: L929 cells, vs Mito Tracker Red CMXRos (100 nm), blue and red channel
Protocol: (§1) Dye 1a was formulated into a mother liquor in DMSO (dimethyl sulfoxide), and then added to a conventional cell culture medium to give a concentration of dye 1a in the cell culture medium of 1 μM. L929 cells and HeLa cells were respectively co-cultured for 10 min in an incubator at saturated humidity, 37° C., and 5% CO2 (the experiment was same below). The existing red mitochondrial marker Mito Tracker® Red CMXRos (100 nm) was added, and the cells were co-incubated for another 10 min, washed three times with a PBS buffer, and imaged under a laser confocal microscope. In the blue channel, light of 405 nm was used for excitation, and a fluorescence signal in the range of 410-500 nm was collected; and in the red channel, light of 561 nm was used for excitation, and a fluorescence signal in the range of 570-750 nm was collected. […] The results are shown in FIG. 14, where (a) and (g) are the bright-field images; (b) and (h) are the cell images with dye 1a; (c) and (i) are the cell images with the red mitochondrial marker; (d) and (j) are overlapped images with blue channel and red channel, (e) and (k) show the fluorescence intensity of the ROI line in the overlapped images; and (f) and (1) show colocalization assays, with a colocalization coefficient of 0.90 (L929) and 0.84 (HeLa) respectively.
(§2) The experiment method with dye 1b, dye 1c, dye 2a, dye 2b, and dye 2c (1 μM) is the same as that with dye 1a above, except that dye 1a is replaced. In FIG. 15, (a) and (g) are the bright-field images; (b) and (h) are the cell images with dye 1b; (c) and (i) are the cell images with the red mitochondrial marker; (d) and (j) are overlapped images with blue channel and red channel, (e) and (k) show the fluorescence intensity of the ROI line in the overlapped images; and (f) and (1) show colocalization assays, with a colocalization coefficient of 0.81 (L929) and 0.83 (HeLa) respectively. In FIG. 16, (a) and (g) are the bright-field images; (b) and (h) are the cell images with dye 1c; (c) and (i) are the cell images with the red mitochondrial marker; (d) and (j) are overlapped images with blue channel and red channel, (e) and (k) show the fluorescence intensity of the ROI line in the overlapped images; and (f) and (1) show a colocalization assay, both having a colocalization coefficient of 0.77. In FIG. 17, (a) and (g) are the bright-field images; (b) and (h) are the cell images with dye 2a; (c) and (i) are the cell images with the red mitochondrial marker; (d) and (j) are overlapped images with blue channel and red channel, (e) and (k) show the fluorescence intensity of the ROI line in the overlapped images; and (f) and (1) show colocalization assays, with a colocalization coefficient of 0.79 (L929) and 0.80 (HeLa) respectively. In FIG. 18, (a) and (g) are the bright-field images; (b) and (h) are the cell images with dye 2b; (c) and (i) are the cell images with the red mitochondrial marker; (d) and (j) are overlapped images with blue channel and red channel, (e) and (k) show the fluorescence intensity of the ROI line in the overlapped images; and (f) and (1) show colocalization assays, with a colocalization coefficient of 0.85 (L929) and 0.79 (HeLa) respectively. In FIG. 19, (a) and (g) are the bright-field images; (b) and (h) are the cell images with dye 2c; (c) and (i) are the cell images with the red mitochondrial marker; (d) and (j) are overlapped images with blue channel and red channel, (e) and (k) show the fluorescence intensity of the ROI line in the overlapped images; and (f) and (1) show colocalization assays, with a colocalization coefficient of 0.82 (L929) and 0.84 (HeLa) respectively.

HeLa cells = assay: as above; format: cell-based; details: dye 1 μM, vs Mito Tracker Red CMXRos (100 nm); for colocalization coefficient: blue and red channel
Protocol: as §1, §2
Dye 4 was formulated into a mother liquor in DMSO, and then added to a conventional cell culture medium to give a concentration of dye 4 in the cell culture medium of 1 μM. HeLa cells were co-cultured for 10 min in an incubator at saturated humidity, 37° C., and 5% CO2. […]

| SMILES | maximum absorption wavelength (ultraviolet-visible absorption spectrum) [1] [nm] | maximum emission wavelength (fluorescence spectrum) [1] [nm] | mitochondria labeling ability (blue mitochondrial marker) (L929 cells) | colocalization coefficient (L929 cells) | colocalization coefficient (HeLa cells) | overlap with the red mitochondrial marker (HeLa cells; green and red channel) |
| --- | --- | --- | --- | --- | --- | --- |
| CCN(CC)c1ccc2c(C)c(-c3cnc4[nH]ccc4c3)c(=O)oc2c1 [dye 1b] | 382 | 485 | mitochondria labeling ability in both normal cells and cancer cells | 0.81 | 0.83 |  |
| CC1=CC(C)=[N+]2C1=C(c1ccc(-c3ccc4[nH]ncc4c3)cc1)c1c(C)cc(C)n1[B-]2(F)F [dye 4] | 501 | 515 |  |  |  | cannot be overlapped well with the red mitochondrial marker |
| CCN(CC)c1ccc2c(C)c(-c3ccc4[nH]ncc4c3)c(=O)oc2c1 [dye 1a] | 378 | 452 | mitochondria labeling ability in both normal cells and cancer cells | 0.90 | 0.84 |  |
| CCN(CC)c1ccc2c(C)c(-c3cnc4[nH]ncc4c3)c(=O)oc2c1 [dye 1c] | 385 | 454 | mitochondria labeling ability in both normal cells and cancer cells | 0.77 | 0.77 |  |

The next lines start with results.

| maximum absorption wavelength (ultraviolet-visible absorption spectrum) [1] [nm] | maximum emission wavelength (fluorescence spectrum) [1] [nm] | SMILES | mitochondria labeling ability (blue mitochondrial marker) (L929 cells) | colocalization coefficient (L929 cells) | colocalization coefficient (HeLa cells) | overlap with the red mitochondrial marker (HeLa cells; green and red channel) |
| --- | --- | --- | --- | --- | --- | --- |
| 356 | 441 | CCCCN1C(=O)c2cccc3c(-c4cnc5[nH]ncc5c4)ccc(c23)C1=O [dye 2c] | mitochondria labeling ability in both normal cells and cancer cells | 0.82 | 0.84 |  |
| 360 | 458 | CCCCN1C(=O)c2cccc3c(-c4cnc5[nH]ccc5c4)ccc(c23)C1=O [dye 2b] | mitochondria labeling ability in both normal cells and cancer cells | 0.85 | 0.79 |  |
| 364 | 480 | CCCCN1C(=O)c2cccc3c(-c4ccc5[nH]ncc5c4)ccc(c23)C1=O [dye 2a] | mitochondria labeling ability in both normal cells and cancer cells | 0.79 | 0.80 |  |
